From PubChem BioAssay (NCI)
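A five-concentration, 48-hour dose response in 96-well plates underlies each endpoint, interpolated linearly between surrounding concentrations. Here, GI50 denotes the concentration required for 50% inhibition of growth. TGI is the concentration that stops growth completely.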

Key:
Test in all cases: DTP human tumour cell line panel, 48 h
COLO 205 colon = system: COLO 205 colon
IGROV1 ovarian = system: IGROV1 ovarian
NCI-H460 lung = system: NCI-H460 lung
786-0 renal = system: 786-0 renal
SNB-19 CNS = system: SNB-19 CNS
BT-549 breast = system: BT-549 breast
RXF 393 renal = system: RXF 393 renal
HL-60(TB) leukemia = system: HL-60(TB) leukemia
NCI/ADR-RES ovarian = system: NCI/ADR-RES ovarian
MDA-MB-231 breast = system: MDA-MB-231 breast
U251 CNS = system: U251 CNS
CCRF-CEM leukemia = system: CCRF-CEM leukemia
DU-145 prostate = system: DU-145 prostate
HS 578T breast = system: HS 578T breast
SR leukemia = system: SR leukemia
HOP-92 NSCLC = system: HOP-92 NSCLC
SF-539 CNS = system: SF-539 CNS
HCT-15 colon = system: HCT-15 colon
LOX IMVI melanoma = system: LOX IMVI melanoma
RPMI-8226 leukemia = system: RPMI-8226 leukemia
K-562 leukemia = system: K-562 leukemia
OVCAR-8 ovarian = system: OVCAR-8 ovarian
OVCAR-4 ovarian = system: OVCAR-4 ovarian
SW-620 colon = system: SW-620 colon
HCT-116 colon = system: HCT-116 colon
ACHN renal = system: ACHN renal
NCI-H522 lung = system: NCI-H522 lung
UACC-62 melanoma = system: UACC-62 melanoma
OVCAR-3 ovarian = system: OVCAR-3 ovarian
SK-MEL-28 melanoma = system: SK-MEL-28 melanoma
OVCAR-5 ovarian = system: OVCAR-5 ovarian
CAKI-1 renal = system: CAKI-1 renal
MDA-MB-435 = system: MDA-MB-435
HT29 colon = system: HT29 colon
MOLT-4 leukemia = system: MOLT-4 leukemia
PC-3 prostate = system: PC-3 prostate
SNB-75 CNS = system: SNB-75 CNS
SF-295 CNS = system: SF-295 CNS
EKVX NSCLC = system: EKVX NSCLC
NCI-H23 lung = system: NCI-H23 lung
UACC-257 melanoma = system: UACC-257 melanoma
M14 melanoma = system: M14 melanoma
SK-MEL-2 melanoma = system: SK-MEL-2 melanoma
HCC-2998 colon = system: HCC-2998 colon
KM12 colon = system: KM12 colon
HOP-62 NSCLC = system: HOP-62 NSCLC
TK-10 renal = system: TK-10 renal
A549 NSCLC = system: A549 NSCLC
SF-268 CNS = system: SF-268 CNS
SN12C renal = system: SN12C renal
SK-OV-3 ovarian = system: SK-OV-3 ovarian
NCI-H226 lung = system: NCI-H226 lung
UO-31 renal = system: UO-31 renal
SK-MEL-5 melanoma = system: SK-MEL-5 melanoma
MCF7 breast = system: MCF7 breast
MALME-3M melanoma = system: MALME-3M melanoma
T-47D breast = system: T-47D breast

C=C1C(O)C2C(=C(CCC3CC3)C13CC3)C(=O)C(C)(C)C2O (configuration not stated)
GI50 (COLO 205 colon): > 100 µM | TGI (COLO 205 colon): > 100 µM | GI50 (IGROV1 ovarian): > 100 µM | TGI (IGROV1 ovarian): > 100 µM | GI50 (NCI-H460 lung): 80.9 µM | TGI (NCI-H460 lung): > 100 µM | GI50 (786-0 renal): > 100 µM | TGI (786-0 renal): > 100 µM | GI50 (SNB-19 CNS): > 100 µM | TGI (SNB-19 CNS): > 100 µM | GI50 (BT-549 breast): > 100 µM | TGI (BT-549 breast): > 100 µM | GI50 (RXF 393 renal): 32.9 µM | TGI (RXF 393 renal): > 100 µM | GI50 (HL-60(TB) leukemia): > 100 µM | TGI (HL-60(TB) leukemia): > 100 µM | GI50 (NCI/ADR-RES ovarian): > 100 µM | TGI (NCI/ADR-RES ovarian): > 100 µM | GI50 (MDA-MB-231 breast): 29.1 µM | TGI (MDA-MB-231 breast): 99 µM | GI50 (U251 CNS): 89.9 µM | TGI (U251 CNS): > 100 µM | GI50 (CCRF-CEM leukemia): > 100 µM | TGI (CCRF-CEM leukemia): > 100 µM | GI50 (DU-145 prostate): > 100 µM | TGI (DU-145 prostate): > 100 µM | GI50 (HS 578T breast): 25.7 µM | TGI (HS 578T breast): > 100 µM | GI50 (SR leukemia): 32.1 µM | TGI (SR leukemia): > 100 µM | GI50 (HOP-92 NSCLC): 34.2 µM | TGI (HOP-92 NSCLC): > 100 µM | GI50 (SF-539 CNS): > 100 µM | TGI (SF-539 CNS): > 100 µM | GI50 (HCT-15 colon): > 100 µM | TGI (HCT-15 colon): > 100 µM | GI50 (LOX IMVI melanoma): > 100 µM | TGI (LOX IMVI melanoma): > 100 µM | GI50 (RPMI-8226 leukemia): 43.7 µM | TGI (RPMI-8226 leukemia): > 100 µM | GI50 (K-562 leukemia): 61.3 µM | TGI (K-562 leukemia): > 100 µM | GI50 (OVCAR-8 ovarian): > 100 µM | TGI (OVCAR-8 ovarian): > 100 µM | GI50 (OVCAR-4 ovarian): > 100 µM | TGI (OVCAR-4 ovarian): > 100 µM | GI50 (SW-620 colon): > 100 µM | TGI (SW-620 colon): > 100 µM | GI50 (HCT-116 colon): > 100 µM | TGI (HCT-116 colon): > 100 µM | GI50 (ACHN renal): > 100 µM | TGI (ACHN renal): > 100 µM | GI50 (NCI-H522 lung): 60.4 µM | TGI (NCI-H522 lung): > 100 µM | GI50 (UACC-62 melanoma): 87.4 µM | TGI (UACC-62 melanoma): > 100 µM | GI50 (OVCAR-3 ovarian): 59.5 µM | TGI (OVCAR-3 ovarian): > 100 µM | GI50 (SK-MEL-28 melanoma): 76.2 µM | TGI (SK-MEL-28 melanoma): > 100 µM | GI50 (OVCAR-5 ovarian): > 100 µM | TGI (OVCAR-5 ovarian): > 100 µM | GI50 (CAKI-1 renal): 45.8 µM | TGI (CAKI-1 renal): > 100 µM | GI50 (MDA-MB-435): > 100 µM | TGI (MDA-MB-435): > 100 µM | GI50 (HT29 colon): > 100 µM | TGI (HT29 colon): > 100 µM | GI50 (MOLT-4 leukemia): 44.3 µM | TGI (MOLT-4 leukemia): > 100 µM | GI50 (PC-3 prostate): 92.3 µM | TGI (PC-3 prostate): > 100 µM | GI50 (SNB-75 CNS): 23.2 µM | TGI (SNB-75 CNS): > 100 µM | GI50 (SF-295 CNS): 55.8 µM | TGI (SF-295 CNS): > 100 µM | GI50 (EKVX NSCLC): > 100 µM | TGI (EKVX NSCLC): > 100 µM | GI50 (NCI-H23 lung): 76.2 µM | TGI (NCI-H23 lung): > 100 µM | GI50 (UACC-257 melanoma): 71.3 µM | TGI (UACC-257 melanoma): > 100 µM | GI50 (M14 melanoma): > 100 µM | TGI (M14 melanoma): > 100 µM | GI50 (SK-MEL-2 melanoma): > 100 µM | TGI (SK-MEL-2 melanoma): > 100 µM | GI50 (HCC-2998 colon): > 100 µM | TGI (HCC-2998 colon): > 100 µM | GI50 (KM12 colon): > 100 µM | TGI (KM12 colon): > 100 µM | GI50 (HOP-62 NSCLC): > 100 µM | TGI (HOP-62 NSCLC): > 100 µM | GI50 (TK-10 renal): > 100 µM | TGI (TK-10 renal): > 100 µM | GI50 (A549 NSCLC): > 100 µM | TGI (A549 NSCLC): > 100 µM | GI50 (SF-268 CNS): > 100 µM | TGI (SF-268 CNS): > 100 µM | GI50 (SN12C renal): 71.3 µM | TGI (SN12C renal): > 100 µM | GI50 (SK-OV-3 ovarian): 30.1 µM | TGI (SK-OV-3 ovarian): > 100 µM | GI50 (NCI-H226 lung): > 100 µM | TGI (NCI-H226 lung): > 100 µM | GI50 (UO-31 renal): > 100 µM | TGI (UO-31 renal): > 100 µM | GI50 (SK-MEL-5 melanoma): 42.1 µM | TGI (SK-MEL-5 melanoma): > 100 µM | GI50 (MCF7 breast): 58.7 µM | TGI (MCF7 breast): > 100 µM | GI50 (MALME-3M melanoma): > 100 µM | TGI (MALME-3M melanoma): > 100 µM

Cc1nn2c(/C=N/N=C(N)N)c(-c3ccc(Cl)c([N+](=O)[O-])c3)nc2s1
GI50 (COLO 205 colon): 0.457 µM | TGI (COLO 205 colon): 61.7 µM | GI50 (IGROV1 ovarian): 6.2 µM | TGI (IGROV1 ovarian): 22.1 µM | GI50 (NCI-H460 lung): 1.18 µM | GI50 (786-0 renal): 0.249 µM | TGI (786-0 renal): 0.442 µM | GI50 (SNB-19 CNS): 0.543 µM | TGI (SNB-19 CNS): > 100 µM | GI50 (BT-549 breast): 21.6 µM | TGI (BT-549 breast): 48.3 µM | GI50 (RXF 393 renal): 3.4 µM | GI50 (NCI/ADR-RES ovarian): 3.61 µM | TGI (NCI/ADR-RES ovarian): 15 µM | GI50 (MDA-MB-231 breast): 2.03 µM | TGI (MDA-MB-231 breast): 3.66 µM | GI50 (U251 CNS): 0.285 µM | TGI (U251 CNS): 0.597 µM | GI50 (CCRF-CEM leukemia): 0.368 µM | TGI (CCRF-CEM leukemia): 0.751 µM | GI50 (DU-145 prostate): 2.32 µM | TGI (DU-145 prostate): 4.98 µM | GI50 (SR leukemia): 2.53 µM | TGI (SR leukemia): 4.9 µM | GI50 (SF-539 CNS): 2.07 µM | TGI (SF-539 CNS): 3.63 µM | GI50 (HCT-15 colon): 1.43 µM | TGI (HCT-15 colon): 3.72 µM | GI50 (RPMI-8226 leukemia): 0.791 µM | TGI (RPMI-8226 leukemia): 1.76 µM | GI50 (T-47D breast): 0.481 µM | GI50 (K-562 leukemia): 2.98 µM | TGI (K-562 leukemia): 9.63 µM | GI50 (SW-620 colon): 0.444 µM | TGI (SW-620 colon): 1.72 µM | GI50 (HCT-116 colon): 0.192 µM | TGI (HCT-116 colon): 0.374 µM | GI50 (ACHN renal): 0.966 µM | TGI (ACHN renal): 2.58 µM | GI50 (NCI-H522 lung): 7.04 µM | TGI (NCI-H522 lung): 46.7 µM | GI50 (UACC-62 melanoma): 2.06 µM | TGI (UACC-62 melanoma): 3.58 µM | GI50 (OVCAR-3 ovarian): 0.488 µM | TGI (OVCAR-3 ovarian): 1.52 µM | GI50 (OVCAR-5 ovarian): 1.42 µM | TGI (OVCAR-5 ovarian): 3.15 µM | GI50 (CAKI-1 renal): 1.47 µM | TGI (CAKI-1 renal): 2.85 µM | GI50 (MDA-MB-435): 0.204 µM | TGI (MDA-MB-435): 0.363 µM | GI50 (HT29 colon): 0.236 µM | GI50 (MOLT-4 leukemia): 2.88 µM | TGI (MOLT-4 leukemia): 5.61 µM | GI50 (PC-3 prostate): 1.14 µM | TGI (PC-3 prostate): 2.83 µM | GI50 (SNB-75 CNS): 1.36 µM | TGI (SNB-75 CNS): 2.94 µM | GI50 (SF-295 CNS): 0.615 µM | TGI (SF-295 CNS): 1.94 µM | GI50 (EKVX NSCLC): 25.3 µM | TGI (EKVX NSCLC): 69.6 µM | GI50 (UACC-257 melanoma): 6.14 µM | TGI (UACC-257 melanoma): 11.7 µM | GI50 (M14 melanoma): 1.72 µM | TGI (M14 melanoma): 3.3 µM | GI50 (SK-MEL-2 melanoma): 2.53 µM | TGI (SK-MEL-2 melanoma): 6.46 µM | GI50 (HCC-2998 colon): 1.42 µM | TGI (HCC-2998 colon): 2.91 µM | GI50 (HOP-62 NSCLC): 0.262 µM | TGI (HOP-62 NSCLC): 0.529 µM | GI50 (TK-10 renal): 2.06 µM | TGI (TK-10 renal): 3.56 µM | GI50 (A549 NSCLC): 4.96 µM | TGI (A549 NSCLC): 17.5 µM | GI50 (SF-268 CNS): 1.22 µM | GI50 (SN12C renal): 0.763 µM | TGI (SN12C renal): 1.58 µM | GI50 (SK-OV-3 ovarian): 2.85 µM | TGI (SK-OV-3 ovarian): 6.75 µM | GI50 (UO-31 renal): 20.9 µM | TGI (UO-31 renal): 41.1 µM | GI50 (MALME-3M melanoma): 2.44 µM | TGI (MALME-3M melanoma): 4.14 µM
